Experiments:
IRAK4 = IRAK4 (Homo sapiens (Human), UniProt Q9NWZ3); assay: IRAK-4 biochemical kinase assay, AlphaScreen format; settings: 1 nM IRAK4, 1.6 μM peptide, 10 μM ATP, 3.5 h at RT
Method: The biochemical assay is in a AlphaScreen format. The kinase reaction is based on the IRAK-4 phosphorylation of a biotin labeled peptide. The phosphopeptide is incubated with anti-phosphothreonine antibody as well as streptavidin- and protein A-coated beads. Binding of the protein-A coated beads to the antibody and the streptavidin beads to the peptide, leads to an energy transfer from one bead to the other, ultimately producing a luminescent/fluorescent signal.

A549 cells = assay: Cell-based assay, IL-6 ELISA quantification in IL-1 beta stimulated A549 cells; settings: 2 ng/ml human IL-1 beta overnight, class symbols, read-out: Celluar Data EC50
Method: The cell-based assays is based on IL-6 ELISA quantification. Briefly, A549 cells are cultured in DMEM with 10% FBS medium. When cells reach 80% confluence they are trypsin treated and seeded in 96-well plate at 2.5×10^4 cells/well. Then, 20 ul of compound serial dilutions (starting at 10 uM, 10 points) are added to the cell plate; incubate for 1 hour at 37 C and stimulated with 2 ng/ml human IL-1 beta 37 C overnight. The next day 100 ul of cell supernatant per well are analyzed on a Human IL-6 Quantikine ELISA kit from R&D Systems.

Sequence of IRAK4 (Q9NWZ3 whole entry, species assumed): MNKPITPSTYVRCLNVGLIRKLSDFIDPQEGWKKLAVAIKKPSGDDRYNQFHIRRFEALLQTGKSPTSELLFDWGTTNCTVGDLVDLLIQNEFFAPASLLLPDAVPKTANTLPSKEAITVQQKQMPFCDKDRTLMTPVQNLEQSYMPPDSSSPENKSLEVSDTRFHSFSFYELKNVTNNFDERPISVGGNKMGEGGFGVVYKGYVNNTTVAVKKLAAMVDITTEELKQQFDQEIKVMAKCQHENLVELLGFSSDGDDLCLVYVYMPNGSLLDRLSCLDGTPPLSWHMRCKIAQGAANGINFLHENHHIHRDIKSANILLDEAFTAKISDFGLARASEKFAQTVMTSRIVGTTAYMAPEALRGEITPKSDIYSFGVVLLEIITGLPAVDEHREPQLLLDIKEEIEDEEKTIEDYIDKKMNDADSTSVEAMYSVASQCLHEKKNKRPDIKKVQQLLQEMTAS

SMILES	IC50 (IRAK4; class symbols) [nM]	EC50 (A549 cells) [nM]	IC50 (IRAK4; given as numeric bound) [nM]
O=C1Nc2ccccc2OCCCCCNc2cc(ccn2)-c2nc1co2 [Compound 2]	< 100	< 1000	
O=C1Nc2ccccc2OCCCCOCc2cc(ccn2)-c2nc1co2 [Compound 4]	< 100	> 10000	
O=C1Nc2ccccc2OCCCCCCn2cc(cn2)-c2nc1co2 [Compound 7]	< 100	< 10000	
O=C1Nc2ccccc2OC(CO)CCCCNc2cc(ccn2)-c2nc1co2 (stereo not shown) [Compound 12]	< 100	< 1000	
CN(C)CCNC(=O)c1ccc2c(c1)NC(=O)c1csc(n1)-c1ccnc(c1)NCCCCCO2 [Compound 16]	< 100	> 10000	
Cn1cc2c(n1)C(=O)NCCCCCCCCNc1cc(ccn1)-c1nc(co1)C(=O)N2 [Compound 29]	< 100	< 1000	
Cn1cc2c(n1)C(=O)NCCCCCCNc1cc(ccn1)-c1nc(co1)C(=O)N2 [Compound 32]	< 100	< 1000	
Cn1cc2c(n1)C(=O)NCCCCOc1cc(ccn1)-c1nc(co1)C(=O)N2 [Compound 34]	< 100	< 1000	
O=C1Nc2cn(C3CCOCC3)nc2C(=O)NCCCCCc2cc(ccn2)-c2nc1co2 [Compound 40]	< 100	< 10000	
Cn1cc2c(n1)C(=O)NCCOCCOc1cc(ccn1)-c1nc(cs1)C(=O)N2 [Compound 43]	< 100	< 10000	
O=C1Nc2cn(C3CCOCC3)nc2C(=O)NCCOCCOc2cc(ccn2)-c2nc1cs2 [Compound 44]	< 100	< 10000	
Cn1cc2c(n1)C(=O)NCCOCCNc1cc(ccn1)-c1nc(cs1)C(=O)N2 [Compound 45]	< 100	< 1000	
O=C1Nc2cn(C3CCOCC3)nc2C(=O)NCCOCCNc2cc(ccn2)-c2nc1cs2 [Compound 46]	< 100	< 1000	
O=C1Nc2cn(C3CCOCC3)nc2C(=O)NCCOCCCc2cc(ccn2)-c2nc1cs2 [Compound 47]	< 100	< 1000	
Cn1cc2c(n1)C(=O)NCCOCCCc1cc(ccn1)-c1nc(cs1)C(=O)N2 [Compound 48]	< 100	< 10000	
O=C1NC[C@H]2CC[C@@H](C2)OCCCNc2cc(ccn2)-c2nc1cs2 [Example 82]	< 1000	< 10000	
O=C1NC[C@@H]2CC[C@@H](C2)OCCCNc2cc(ccn2)-c2nc1cs2 [Example 83]	< 100	< 10000	
O=C1Nc2cn(C3CCOCC3)nc2C(=O)NCCCCOc2cc(ccn2)-c2nc1cs2 [Example 90]	< 100	< 10000	
Cn1cc2c(n1)C(=O)NCCCCOc1cc(ccn1)-c1nc(cs1)C(=O)N2 [Example 91]	< 100	< 1000	
O=C1Nc2cn(C3CCOCC3)nc2C(=O)NCCCCCc2cc(ccn2)-c2nc1cs2 [Example 95]	< 100	< 1000	
Cn1cc2c(n1)C(=O)NCCCCCc1cc(ccn1)-c1nc(cs1)C(=O)N2 [Example 96]	< 100	< 10000	
CC(C)(C)OC(=O)N1CCN(CCn2ncc3c2C(=O)NCCOCCOc2cc(ccn2)-c2nc(cs2)C(=O)N3)CC1 [Example 108]	< 1000	> 10000	
O=C1Nc2cnn(CCN3CCNCC3)c2C(=O)NCCOCCOc2cc(ccn2)-c2nc1cs2 [Example 109]	< 10000	> 10000	

SMILES	IC50 (IRAK4; class symbols) [nM]	EC50 (A549 cells) [nM]	IC50 (IRAK4; given as numeric bound) [nM]
O=C1Nc2cn(C3CCCCO3)nc2C(=O)NCCOCCOc2cc(ccn2)-c2nc1cs2 (stereo not shown) [Example 110]	< 100	< 10000	
NC(=O)CN1CCCc2cc(ccn2)-c2nc(cs2)C(=O)Nc2cn(C3CCOCC3)nc2C(=O)NCC1 [Example 175]	< 1000		
CCOC(=O)CN1CCCc2cc(ccn2)-c2nc(cs2)C(=O)Nc2cn(C3CCOCC3)nc2C(=O)NCC1 [Example 176]			> 10000
CN(C)CCC(=O)N1CCCc2cc(ccn2)-c2nc(cs2)C(=O)Nc2cn(C3CCOCC3)nc2C(=O)NCC1 [Example 177]	< 100		
NCCC(=O)N1CCCc2cc(ccn2)-c2nc(cs2)C(=O)Nc2cn(C3CCOCC3)nc2C(=O)NCC1 [Example 178]	< 100		
O=C(O)CCN1CCCc2cc(ccn2)-c2nc(cs2)C(=O)Nc2cn(C3CCOCC3)nc2C(=O)NCC1 [Example 179]	< 100		
CCOC(=O)CCN1CCCc2cc(ccn2)-c2nc(cs2)C(=O)Nc2cn(C3CCOCC3)nc2C(=O)NCC1 [Example 180]	< 100		
NC(=O)CCN1CCCc2cc(ccn2)-c2nc(cs2)C(=O)Nc2cn(C3CCOCC3)nc2C(=O)NCC1 [Example 181]	< 100		
CC(C)(C)C(=O)N1CCCc2cc(ccn2)-c2nc(cs2)C(=O)Nc2cn(C3CCOCC3)nc2C(=O)NCC1 [Example 182]	< 1000		
CCC(=O)N1CCCc2cc(ccn2)-c2nc(cs2)C(=O)Nc2cn(C3CCOCC3)nc2C(=O)NCC1 [Example 183]	< 100		
O=C1Nc2cn(C3CCOCC3)nc2C(=O)NCCN(C(=O)C2CC2)CCCc2cc(ccn2)-c2nc1cs2 [Example 184]	< 100		
CC(C)(CO)C(=O)N1CCCc2cc(ccn2)-c2nc(cs2)C(=O)Nc2cn(C3CCOCC3)nc2C(=O)NCC1 [Example 185]	< 100		
CNC(=O)N1CCCc2cc(ccn2)-c2nc(cs2)C(=O)Nc2cn(C3CCOCC3)nc2C(=O)NCC1 [Example 186]	< 100		
CN(C)C(=O)N1CCCc2cc(ccn2)-c2nc(cs2)C(=O)Nc2cn(C3CCOCC3)nc2C(=O)NCC1 [Example 187]	< 1000		
O=C1Nc2cn(C3CCOCC3)nc2C(=O)NCCN(C(=O)CCO)CCCc2cc(ccn2)-c2nc1cs2 [Example 188]	< 100		
CCOC(=O)CC(=O)N1CCCc2cc(ccn2)-c2nc(cs2)C(=O)Nc2cn(C3CCOCC3)nc2C(=O)NCC1 [Example 189]	< 100		
O=C1Nc2cn(C3CCOCC3)nc2C(=O)NCCN(C(=O)C2CCOCC2)CCCc2cc(ccn2)-c2nc1cs2 [Example 190]	< 100		
CCNC(=O)N1CCCc2cc(ccn2)-c2nc(cs2)C(=O)Nc2cn(C3CCOCC3)nc2C(=O)NCC1 [Example 191]	< 100		
O=C1Nc2cn(C3CCOCC3)nc2C(=O)NCCCc2cc(ccn2)-c2nc1cs2 [Example 192]	< 10000		
O=C(CCC1NC(=O)c2nn(C3CCOCC3)cc2NC(=O)c2csc(n2)-c2ccnc(c2)CCCNC1=O)NCc1ccccc1 (stereo not shown) [Example 193]	< 1000		
O=C(O)CCC1NC(=O)c2nn(C3CCOCC3)cc2NC(=O)c2csc(n2)-c2ccnc(c2)CCCNC1=O (stereo not shown) [Example 194]	< 10000		
NC(=O)CCC1NC(=O)c2nn(C3CCOCC3)cc2NC(=O)c2csc(n2)-c2ccnc(c2)CCCNC1=O (stereo not shown) [Example 195]	< 1000		
O=C1CNC(=O)c2nn(C3CCOCC3)cc2NC(=O)c2csc(n2)-c2ccnc(c2)CCCN1 [Example 196]	< 100		

SMILES	IC50 (IRAK4; class symbols) [nM]	EC50 (A549 cells) [nM]	IC50 (IRAK4; given as numeric bound) [nM]
CC1NC(=O)c2nn(C3CCOCC3)cc2NC(=O)c2csc(n2)-c2ccnc(c2)CCCNC1=O (stereo not shown) [Example 197]	< 1000		
O=C1Nc2cn(C3CCOCC3)nc2C(=O)NC(CCO)C(=O)NCCCc2cc(ccn2)-c2nc1cs2 (stereo not shown) [Example 198]	< 10000		
O=C1Nc2cn(C3CCOCC3)nc2C(=O)NC(CCOCc2ccccc2)C(=O)NCCCc2cc(ccn2)-c2nc1cs2 (stereo not shown) [Example 199]			> 10000
Cn1cc2c(n1)C(=O)NCCOCCOc1cc(ccn1)-n1cc(cn1)C(=O)N2 [Example 202]	< 10000		
Cn1cc2c(n1)C(=O)NCCOCCOc1cc(ccn1)-c1cccc(n1)C(=O)N2 [Example 203]	< 100		
O=C1Nc2cn(C3CCOCC3)nc2C(=O)NCCOCCOc2cc(ccn2)-c2cccc1n2 [Example 204]	< 1000		
Cn1cc2c(n1)C(=O)NCCOCCOc1cc(ccn1)C1=CC=C(S1)C(=O)N2 [Example 205]			> 10000
Cn1cc2c(n1)C(=O)NCCOCCOc1cc(ccn1)-c1cccc(c1)C(=O)N2 [Example 209]	< 1000		
O=C1Nc2cn(C3CCOCC3)nc2C(=O)NCCOCCOc2cc(ccn2)-c2cccc1c2 [Example 210]	< 100		
O=C1Nc2cn(C3CCOCC3)nc2C(=O)NCCOCCOc2cc(ccn2)-c2cc1ccn2 [Example 212]	< 1000		
Cn1cc2c(n1)C(=O)NCCOCCOc1cc(ccn1)-c1csc(n1)C(=O)N2 [Example 213]	< 10000		
O=C1Nc2cn(C3CCOCC3)nc2C(=O)NCCOCCOc2cc(ccn2)-c2csc1n2 [Example 214]	< 1000		
Cn1cc2c(n1)C(=O)NCCCOCCCc1cc(ccn1)-c1nc(cs1)C(=O)N2 [Example 215]	< 100		
O=C1Nc2cn(C3CCOCC3)nc2C(=O)NCCCOCCCc2cc(ccn2)-c2nc1cs2 [Example 216]	< 100		
CN1CCOCCNC(=O)c2nn(C3CCOCC3)cc2NC(=O)c2csc(n2)-c2ccnc1c2 [Example 219]	< 100		
CN1CCOCCNC(=O)c2nn(CCN3CCOCC3)cc2NC(=O)c2csc(n2)-c2ccnc1c2 [Example 220]	< 100		
CN1CCOCCNC(=O)c2nn(CCN3CCCCC3)cc2NC(=O)c2csc(n2)-c2ccnc1c2 [Example 221]	< 100		
CN1CCOCCNC(=O)c2nn(C)cc2NC(=O)c2csc(n2)-c2ccnc1c2 [Example 222]	< 100		
CN1CCCCNC(=O)c2nn(C)cc2NC(=O)c2csc(n2)-c2ccnc1c2 [Example 223]	< 100		
CN1CCCCNC(=O)c2nn(C3CCOCC3)cc2NC(=O)c2csc(n2)-c2ccnc1c2 [Example 224]	< 100		
O=C1CCc2cc(ccn2)-c2nc(cs2)C(=O)Nc2cn(C3CCOCC3)nc2C(=O)NCCN1 [Example 225]	< 100		
